Laboratory results taken from EP0090204A1, “Optically active levorotatory derivatives of phenoxy-benzoic acid, method for their preparation and their use as herbicides” (BAYER AG, priority 1982, dated 1983).

Key:
Assay type in all cases: in vivo
Dicotyledoneae [1] = experiment: Pre-emergence test; settings: % damage vs untreated control after three weeks, average effect on several dicots
From the text: (§1) Zur Herstellung einer zweckmäßigen Wirkstoffzubereitung vermischt man 1 Gewichtsteil Wirkstoff mit der angegebenen Menge Lösungsmittel, gibt die angegebene Menge Emulgator zu und verdünnt das Konzentrat mit Wasser auf die gewünschte Konzentration.
(§2) Samen der Testpflanzen werden in normalen Boden ausgesät und nach 24 Stunden mit der Wirkstoffzubereitung begossen. Dabei hält man die Wassermenge pro Flächeneinheit zweckmäßigerweise konstant. Die Wirkstoffkonzentration in der Zubereitung spielt keine Rolle, entscheidend ist nur die Aufwandmenge des Wirkstoffs pro Flächeneinheit. Nach drei Wochen wird der Schädigungsgrad der Pflanzen bonitiert in % Schädigung im Vergleich zur Entwicklung der unbehandelten Kontrolle.

Mais [2] = experiment: Pre-emergence test; settings: % damage vs untreated control after three weeks
From the text: as §1, §2

Monocotyledoneae [3] = experiment: Pre-emergence test; settings: % damage vs untreated control after three weeks, average effect on several monocots
From the text: as §1, §2

Rüben [4] = experiment: Pre-emergence test; settings: % damage vs untreated control after three weeks
From the text: as §1, §2

Soja [5] = experiment: Pre-emergence test; settings: % damage vs untreated control after three weeks
From the text: as §1, §2

Dicotyledoneae [6] = experiment: Post-emergence test; settings: % damage vs untreated control after three weeks, average effect on several dicots
From the text: as §1
(§3) Mit der Wirkstoffzubereitung spritzt man Testpflanzen, welche eine Höhe von 5 - 15 cm haben so, daß die jeweils gewünschten Wirkstoffmengen pro Flächeneinheit ausgebracht werden. Die Konzentration der Spritzbrühe wird so gewählt, daß in 2000 1 Wasser/ha die jeweils gewünschten Wirkstoffmengen ausgebracht werden. Nach drei Wochen wird der Schädigungsgrad der Pflanzen bonitiert in % Schädigung im Vergleich zur Entwicklung der unbehandelten Kontrolle.

Mais [7] = experiment: Post-emergence test; settings: % damage vs untreated control after three weeks
From the text: as §1, §3

Monocotyledoneae [8] = experiment: Post-emergence test; settings: % damage vs untreated control after three weeks, average effect on several monocots
From the text: as §1, §3

Rüben [9] = experiment: Post-emergence test; settings: % damage vs untreated control after three weeks
From the text: as §1, §3

Soja [10] = experiment: Post-emergence test; settings: % damage vs untreated control after three weeks
From the text: as §1, §3

Testpflanzen [11] = experiment: Pre-emergence test, overall comparison; settings: compared with the corresponding racemic compounds (A) and (B)
From the text: as §1, §2

Testpflanzen [12] = experiment: Post-emergence test, overall comparison; settings: compared with the corresponding racemic compounds (A) and (B)
From the text: as §1, §3

CCOC(=O)[C@@H](C)OC(=O)c1cc(Oc2ccc(C(F)(F)F)cc2Cl)ccc1[N+](=O)[O-] [(2), 5-(2-Chlor-4-trifluormethyl-phenoxy)-2-nitro-benzoesäure-(1-ethoxycarbonyl-ethyl)-esters]
Wirkung (in %) Dicotyledoneae (Dicotyledoneae [1]; 0,75 kg/ha): 74,3% | Wirkung (in %) Mais (Mais [2]; 0,75 kg/ha): 0% | Wirkung (in %) Monocotyledoneae (Monocotyledoneae [3]; 0,75 kg/ha): 80,7% | Wirkung (in %) Rüben (Rüben [4]; 0,75 kg/ha): 99% | Wirkung (in %) Soja (Soja [5]; 0,75 kg/ha): 0% | Wirkung (in %) Dicotyledoneae (Dicotyledoneae [6]; 0,75 kg/ha): 99,3% | Wirkung (in %) Mais (Mais [7]; 0,75 kg/ha): 99% | Wirkung (in %) Monocotyledoneae (Monocotyledoneae [8]; 0,75 kg/ha): 86,3% | Wirkung (in %) Rüben (Rüben [9]; 0,75 kg/ha): 100% | Wirkung (in %) Soja (Soja [10]; 0,75 kg/ha): 99% | herbizide Wirksamkeit (Testpflanzen [11]): bessere herbizide Wirksamkeit | herbizide Wirksamkeit (Testpflanzen [12]): bessere herbizide Wirksamkeit

CCOC(=O)[C@@H](C)OC(=O)c1cc(Oc2c(Cl)cc(C(F)(F)F)cc2Cl)ccc1[N+](=O)[O-] [(1), 5-(2,6-Dichlor-4-trifluormethyl-phenoxy)-2-nitro-benzoesäure-(1-ethoxycarbonylethyl)-esters]
Wirkung (in %) Dicotyledoneae (Dicotyledoneae [1]; 0,6 kg/ha): 92,7% | Wirkung (in %) Mais (Mais [2]; 0,6 kg/ha): 10% | Wirkung (in %) Monocotyledoneae (Monocotyledoneae [3]; 0,6 kg/ha): 79,3% | Wirkung (in %) Rüben (Rüben [4]; 0,6 kg/ha): 100% | Wirkung (in %) Soja (Soja [5]; 0,6 kg/ha): 10% | Wirkung (in %) Dicotyledoneae (Dicotyledoneae [6]; 0,6 kg/ha): 99,3% | Wirkung (in %) Mais (Mais [7]; 0,6 kg/ha): 80% | Wirkung (in %) Monocotyledoneae (Monocotyledoneae [8]; 0,6 kg/ha): 81,1% | Wirkung (in %) Rüben (Rüben [9]; 0,6 kg/ha): 100% | Wirkung (in %) Soja (Soja [10]; 0,6 kg/ha): 100% | herbizide Wirksamkeit (Testpflanzen [11]): bessere herbizide Wirksamkeit | herbizide Wirksamkeit (Testpflanzen [12]): bessere herbizide Wirksamkeit
